Experimental data: patent US11672802B2, “Induction of immune tolerance by using methotrexate” (Genzyme Corporation, priority 2011, dated 2023)

Columns and labels:
[1] = tested on: allogeneic heart transplant; assay: Murine allogeneic heart transplant model, graft survival; assay type: in vivo, mice (C57BL/6 donor, Balb/c recipient); settings: mouse, in vivo
Description: Polyclonal antibody mATG was administered as an intraperitoneal injection of 5 mg/kg every four weeks or as two 20 mg/kg doses given four days apart when in the transplant setting with the first dose given on the day of transplant (day 0).
C57BL/6 and BALB/c mice were obtained from Charles River (Kingston, N.Y. or Raleigh, N.C.) and used in these experiments between 8 and 13 weeks of age. The donor allogenic C57BL/6 mice were first anesthetized with an intraperitoneal injection of Ketamine (Fort Dodge Animal Health/Pfizer, Fort Dodge, Iowa) and Xylazine (Lloyd, Shenandoah, Iowa) and a median sternotomy was performed. […] The ascending aorta and pulmonary artery were then transected, the graft removed from the donor and the heart was stored in ice-cold saline until engraftment. A recipient mouse (Balb/c) was similarly anesthetized and prepped as described above for donor mice, except that the abdominal cavity was opened. […] After hemostasis was confirmed, the abdominal muscle was closed with a running 5-O Vicryl suture (Ethicon, Johnson & Johnson, Somerville, N.J.), and the skin closed with running 5-0 Ethilon suture (Ethicon). Standard post-op pain assessment and management was performed. Grafts were assessed by palpation 5-7 times per week for the first 30 day, and then 3-4 times per week until the end of the study.

[2] = tested on: circulating and splenic T cells and B cells; assay: Flow cytometry of alemtuzumab-mediated lymphocyte depletion in blood and spleen; assay type: in vivo, huCD52 Tg mice
Description: For splenocyte and lymph node cell preparations single-cell suspensions were generated from harvested mouse spleens or inguinal and mesenteric lymph nodes by homogenization between frosted glass slides into PBS containing 2% FCS. For splenocyte preparations, red blood cells were lysed by 1-2 minute incubation with a red blood cell lysis solution (BD Biosciences, San Diego, Calif.). Blood was isolated by retro-orbital bleeding and cell preparations were performed by lysing red blood cells with red blood cell lysing solution (BD Biosciences) for 20-30 minutes. For all tissue preparations, live cells were enumerated using the ViCell automated counter (Beckman Coulter, Fullerton, Calif.). Following isolation, all cell preparations were washed with PBS/2% FCS prior to use in the assays described below.
For evaluation of cell populations within different tissues, single cell suspensions of the tissues were incubated with fluorochrome-conjugated antibodies that included anti-mouse CD4, CD8, CD25, CD44, CD62L (all antibodies from BD Biosciences or eBioscience, San Diego, Calif.). Intracellular Foxp3 expression analysis was performed according to the anti-Foxp3 manufacturer's protocol (eBiosciences, San Diego, Calif.). Following incubation with the antibodies, cells were washed and analyzed by flow cytometry (FACSCanto, BD Biosciences and FCS Express software, De Novo Software, Los Angeles, Calif.).

[3] = tested on: anti-alemtuzumab IgG; assay: Anti-alemtuzumab IgG ELISA titers in huCD52 Tg mice
Description: Alemtuzumab-related studies employed human CD52 (huCD52) transgenic (Tg) mice between 6-12 weeks of age that were obtained from Charles River Laboratories/Genzyme Corp. Mice were housed and maintained in accordance with the Guide for Care and Use of Laboratory Animals and under American Association for Accreditation of Laboratory Animals Care I accreditation and all animal protocols used in these studies were approved by the Institutional Animals Care and Use Committee.
Monoclonal antibody alemtuzumab was administered intravenously as either a single injection of 0.5 mg/kg or in either a three or five day cycle of 0.5 mg/kg/day.
Methotrexate (Calbiochem catalog #454125) was administered at 0.5, 1.0, 2.0 or 5 mg/kg by intraperitoneal injection for 1-3 cycles, where each cycle equals either three, six or seven consecutive days of injection depending upon the experiment.
Mice were bled 4-6 days following alemtuzumab treatment and specific anti-alemtuzumab IgG was measured by ELISA. Briefly, 96-well plates (Corning Inc., Corning, N.Y., USA) were coated overnight with 3 μg/ml of alemtuzumab in PBS (pH 7.2). Following blocking with 0.1% BSA in PBS, serial dilutions of serum were added in duplicate to alemtuzumab-coated plates and incubated at 37° C. for 1 h. The plates were washed, and horseradish peroxidase-conjugated goat anti-mouse IgG secondary antibody (Southern Biotechnology Associates, Birmingham, Ala., USA) was added and allowed to incubate for 1 h at 37° C. Following a final wash, TMB substrate (BioFx, Owings Mills, Md., USA) was added and allowed to develop for 15 min at room temperature. The reaction was stopped by the addition of 1 N HCl and absorbance values were read at 450/650 nm on an ELISA plate reader (Molecular Devices, Sunnyvale, Calif., USA). End-point titers were defined as the antilog of the logarithmically transformed sample dilution interpolated at an absorbance value of 0.2 using Excel software (Microsoft, Redmond, Wash., USA).

[4] = tested on: anti-alemtuzumab antibodies; settings: rheumatoid arthritis patients, single dose escalation study; cited from earlier work
[5] = tested on: anti-rhGAA IgG; assay: Anti-rhGAA IgG ELISA titers in mice treated with rhGAA; assay type: in vivo
Description: Recombinant human alglucosidase alfa (rhGAA, marketed by Genzyme Corp. as Myozyme®) was used as a formulated drug product. Mice were treated weekly with 20 mg/kg of rhGAA by bolus tail vein injection unless stated differently. All mice were treated prophylactically with 5 to 30 mg/kg diphenhydramine (Baxter Healthcare Corporation, Deerfield, Ill.) intraperitoneally prior to rhGAA administration. Control animals were treated intravenously with either sterile 0.9% saline or rhGAA-formulation buffer. Methotrexate treatment
Mice were bled 4-6 days following rhGAA treatment and specific IgG was measured by ELISA. […] Endpoint titers were defined as the reciprocal of the sample dilution resulting in an absorbance value of 0.2 using Softmax software (Molecular Devices, Sunnyvale, Calif.).
C57Bl/6 mice were treated with one 20 mg/kg intravenous dose of rhGAA (Genzyme Corporation), 3 consecutive intraperitoneal doses of 5 mg/kg methotrexate (APP Pharmaceuticals, LLC), and either 1D11 or 13C4 at 5 mg/kg (Genzyme Corporation) for 3 doses every other day. Methotrexate, 1D11, and 13C4 treatment commenced with rhGAA injections. Spleens were collected 7 days after treatment initiation and were processed as described above for B cells, culture and flow analysis. Additionally, rhGAA titer data was obtained by treating animals as described above, with rhGAA dosed weekly over 12 weeks, methotrexate dosed for either 1 or 3 cycles, and 1D11 or 13C4 dosed 3 times a week every other day for 12 weeks. Serum samples were collected every 2 weeks for ELISA analysis.

[6] = alemtuzumab 0.5 mg/kg iv five consecutive days
[7] = peripheral blood, four weeks after five consecutive days of 0.5 mg/kg iv

Compound: O=P1(N(CCCl)CCCl)NCCCO1 (stereo not drawn) [cyclophosphamide]
- graft survival when co-administered with mATG [1]: failed to significantly prolong graft survival

Compound: COc1c(C)c2c(c(O)c1C/C=C(\C)CCC(=O)OCCN1CCOCC1)C(=O)OC2 [mycophenolate mofetil]
- graft survival when co-administered with mATG [1]: failed to significantly prolong graft survival

Compound: alemtuzumab: lymphocyte-depleting humanized anti-CD52 monoclonal antibody
- percent depletion of circulating B cells ([2]; 24 hours after a single dose of alemtuzumab): 92%
- splenic follicular, B1 and regulatory B cells [2, 6]: depleted at one and/or two weeks
- splenic marginal zone, transitional 1 and transitional 2 B cells [2, 6]: not depleted at any of the time-points
- splenic transitional 3 B cells [2, 6]: only depleted after one week of treatment
- depletion of circulating T cells by fifth monthly dose of alemtuzumab ([2]; alemtuzumab alone, or with methotrexate 5 mg/kg daily for first three days): no longer deplete T cells
- recovery of CD19+ B cell numbers [2, 7]: returned to control levels
- recovery of total CD3+ T cells, CD4+ T helper cells and CD8+ T cytotoxic cells [2, 7]: did not recover to pre-treatment levels
- earliest depletion observed in peripheral blood, post-dosing ([2]; single dose of alemtuzumab): three hours
- percent depletion of circulating B cells ([2]; three days after a single dose of alemtuzumab): 36%
- splenic cell subsets ([2]; three days after a single dose of alemtuzumab, no methotrexate): significantly depleted
- ADA responses elicited ([3]; alemtuzumab 0.5 mg/kg iv): significant ADA responses
- ADA response following the fifth dose ([3]; alemtuzumab 0.5 mg/kg monthly): no longer generated anti-alemtuzumab antibodies
- ADA titers against alemtuzumab ([3]; huCD52 Tg CD1 mice): > 100,000
- patients in whom anti-alemtuzumab antibodies developed [4]: 63%

Compound: rhGAA: recombinant human acid alpha-glucosidase, marketed by Genzyme as Myozyme
- ADA to rhGAA ([5]; T cell deficient Nu/Nu mice): little to no ADA
- animals exhibiting high anti-rhGAA titers ([5]; week 6, rhGAA alone, rhGAA + methotrexate, or with 5 mg/kg 1D11 or 13C4): two
